In patent EP0066415A2, “N-(arylthioalkyl)-N'-(aminoalkyl)ureas” (A.H. ROBINS COMPANY, INCORPORATED, priority 1981, dated 1982):

Columns and labels:
[1] = test system: Ouabain Induced Arrhythmias; assay: Ouabain induced arrhythmias, correction by i.v. infusion; assay type: in vivo, adult mongrel dogs; details: Ouabain-Induced arrhythmia, dogs under barbiturate anesthesia, infusion into femoral vein at 1 mg/kg/min
Protocol: correction of existing cardiac arrhythmias of ventri- cular origin was carried out on (1) adult mongrel dogs which were under barbiturate anesthesia during the test. A Grass Model 7 polygraph was used for recording femoral arterial blood pressure (Statham P23AC transducer) and the electrocardiogram (Grass 7P4 preamplifier). Ouabain was given intravenously in an initial dose of 40 µg/kg and in a second dose of […] 30 minutes after the first dose and in subsequent doses of 10 µg/kg which were repeated at 1.5 min. intervals as required for producing cardiac arrhythmias that persisted for at least 15 minutes. When the arrhythmias were established, the test compounds were administered by infusion (Harvard Model 942 Infusion Pump) into a femoral vein at a rate of 1 mg/kg/min. Concentration of compound was adjusted according to the weight of the dog to allow a volume infusion of 1 ml/min. The compound was considered to be active as an antiarrhythmic agent if reversion to the sinus rhythm occurred and this was maintained for at least 30 min.

[2] = test system: Coronary Artery Ligation Induced Arrhythmias; assay: Coronary artery ligation induced arrhythmias; assay type: in vivo, Adult mongrel dogs; details: I.V.; Coronary Artery Ligation Induced arrhythmia; conscious dogs; infusion into saphenous vein at 0.5 mg/kg/min
Protocol: Adult mongrel dogs which were in the conscious state were used for the test and cardiac arrhythmias were induced by prior (22-24 hr) surgical preparation in which blood flow through a coronary artery was occluded by use of a constrictor device as reported by Smith et al, 1973. A Grass Model 79 polygraph was used for recording the electrocardiogram (Grass 7P4 preamplifier).
The test compound was administered by infusion (Harvard Model 942 Infusion Pump) into a sapheneous vein to one group of dogs at a rate of 0.5 mg/kg/min. Concentration of compound was adjusted according to the weight of the dog to allow a volume of infusion of 0.5 ml/min. The test compound was administered orally by gavage to another group of dogs at dose levels of 10 to 40 mg/kg. The test compound was prepared in distilled water to give a total volume of 20 ml. Following the administration of the test compound, the heart rate, number of ectopic cardiac beats per min, and the percent ectopic beats (ectopic beats/BR X100) were recorded at 15 min. intervals. The compound was considered active if it abolished the ectopic ventricular frequency and caused a return to normal sinus rhythm within 2 hours of administration.

Q: How did the “Correcting Dose Range” value [1] turn out when “N'-[2-(Diethylamino)ethyl]-N-(1-methylethyl)-N[2-(phenylsulphonyl)ethyl]urea maleate[1:1] [Example 9]” was run?
A: 4 to 15 mg/kg

Q: What about the “Correcting Dose Range” value [2] of the same substance?
A: 2 to 5 mg/kg
